# According to US9458505B2, “Diagnosis of cowden and cowden-like syndrome by detection of decreased killin expression” (The Cleveland Clinic Foundation, priority 2011, dated 2016):
# Tests used:
# [1] = tested on: KILLIN expression; assay: Quantitative RT-PCR of KILLIN expression in KILLIN-methylated patient lymphoblastoid cell lines after demethylation and/or histone deacetylase inhibition treatment; format: cell-based, human; details: pooled result for decitabine and/or TSA; for patient cell lines in which KILLIN expression was restored: 7 of the 8 patient lymphoblastoid cell lines, decitabine 0.5 μM and/or TSA 200 nM; for KILLIN expression increase following exposure to decitabine and/or TSA: patient lymphoblastoid cell lines, decitabine 0.5 μM 96 hours and/or TSA 200 nM 48 hours, normalized to untreated counterpart set as 1, 95% confidence interval 1.4-18.1
# Procedure: (§1) The quantitative reverse transcription PCRs were performed as previously described. Bennett et al., Cancer Res.; 67(10): 4657-4664 (2007). The study population included four controls and eight patients that were selected based on confirmed methylation status by bisulfite sequencing analysis and representation of the Cowden syndrome and Cowden-like syndrome condition.
# (§2) The study population included eight patients that were selected based on confirmed methylation status by bisulfite sequencing analysis and representation of Cowden syndrome and Cowden-like syndrome condition. Demethylation treatment was performed with a cytosine analog, 5-aza-2′deoxycytidine (decitabine; Sigma), for 96 hours at 0.5 μM concentration with approximately 40% confluent suspension lymphoblastoid cells. Inhibition of histone deacetylation was performed with 200 nM concentration of Trichostatin A (TSA; Sigma) with approximately 40% confluent suspension lymphoblastoid cells for 48 hours, with or without 0.5 μM decitabine. The drug was changed daily, and the cells were collected for RNA isolation.
# [2] = tested on: PTEN expression; assay: Quantitative RT-PCR of PTEN expression in KILLIN-methylated patient lymphoblastoid cell lines after demethylation and/or histone deacetylase inhibition treatment; format: cell-based, human; details: seven of the eight patient lymphoblastoid cell lines; decitabine 0.5 μM and/or TSA 200 nM; pooled result for demethylation and/or inhibition of histone deacetylation
# Procedure: as §1, §2
Compound,patient cell lines in which KILLIN expression was restored [1],KILLIN expression increase following exposure to decitabine and/or TSA [1],patient cell lines with significant decrease in PTEN expression [2]
"CC(/C=C/C(=O)NO)=C\[C@@H](C)C(=O)c1ccc(N(C)C)cc1 [TSA, Trichostatin A]",88%,4.88 fold,88%
"Nc1ncn([C@H]2C[C@H](O)[C@@H](CO)O2)c(=O)n1 [decitabine, 5-aza-2′deoxycytidine]",88%,4.88 fold,88%
